Results as given in patent US9409884B2 (Rigel Pharmaceuticals, Inc., priority 2012, dated 2016).

Target: AMPK
Test: AMPK activation, enzyme-linked immunosorbent assay
Assay type: biochemical
Settings: Table 14, compounds of Table 7
How it was run: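 AMPK activation by test compounds was measured by enzyme-linked immunosorbent assay.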

SMILES	EC50 [nM]
O=C(NC1CCN(Cc2ccc(OC(F)(F)F)cc2)C[C@H]1F)c1ccc(C(=O)N2CCC(Oc3ccc(S(=O)(=O)C4CC4)cc3)CC2)nc1 (stereo partly drawn) [Compound 7-48, 6-(4-(4-(cyclopropylsulfonyl)phenoxy)piperidine-1-carbonyl)-N-((3,4- trans)-3-fluoro-1-(4-(trifluoromethoxy)benzyl)piperidin-4-yl)nicotinamide]	1000 to 10000
CS(=O)(=O)c1ccc(OC2CCN(C(=O)c3ccc(C(=O)NC4CCN(Cc5ccc(OC(F)(F)F)cc5)C[C@H]4F)cn3)CC2)cc1 (stereo partly drawn) [Compound 7-49, N-((3,4-trans)-3-fluoro-1-(4-(trifluoromethoxy)benzyl)piperidin-4-yl)-6-(4-(4-(methylsulfonyl)phenoxy)piperidine-1-carbonyl) nicotmamide]	1000 to 10000
Cc1nc2cc(OC3CCN(C(=O)c4ccc(C(=O)NC5CCN(Cc6ccc(OC(F)(F)F)cc6)C[C@H]5F)cn4)CC3)ccc2s1 (stereo partly drawn) [Compound 7-51, N-((3,4-trans)-3-fluoro-1-(4-(trifluoromethoxy)benzyl)piperidin-4-yl)-6-(4-(2-methylbenzo[d]thiazol-5-yloxy)piperidine-1-carbonyl)nicotinamide]	< 1000
CC(=O)c1ccc(OC2CCN(C(=O)c3ccc(C(=O)NC4CCN(Cc5ccc(OC(F)(F)F)cc5)C[C@H]4F)cn3)CC2)cc1 (stereo partly drawn) [Compound 7-52, 6-(4-(4-acetylphenoxy)piperidine-1-carbonyl)-N-((3,4-trans)-3-fluoro-1-(4-(trifluoromethoxy)benzyl)piperidin-4-yl)nicotinamide]	< 1000
O=C(NC1CCN(Cc2ccc(OC(F)(F)F)cc2)C[C@H]1F)c1ccc(C(=O)N2CCC(C(=O)c3ccc(N4CCOCC4)cc3)CC2)nc1 (stereo partly drawn) [Compound 7-53, N-((3,4-trans)-3-fluoro-1-(4-(trifluoromethoxy)benzyl)piperidin-4-yl)-6-(4-(4-morpholinobenzoyl)piperidine-1-carbonyl)nicotinamide]	< 1000
COc1ccc(C(=O)C2CCN(C(=O)c3ccc(C(=O)NC4CCN(Cc5ccc(OC)c(C#N)c5)C[C@H]4F)cn3)CC2)cc1 (stereo partly drawn) [Compound 7-55, N-((3,4-trans)-1-(3-cyano-4-methoxybenzyl)-3-fluoropiperidin-4-yl)-6-(4-(4-methoxybenzoyl)piperidine-1-carbonyl)nicotinamide]	1000 to 10000
COc1ccc(C(=O)C2CCN(C(=O)c3ccc(C(=O)NC4CCN(Cc5ccc(C#N)cc5C)C[C@H]4F)cn3)CC2)cc1 (stereo partly drawn) [Compound 7-56, N-((3,4-trans)-1-(4-cyano-2-methylbenzyl)-3-fluoropiperidin-4-yl)-6-(4-(4-methoxybenzoyl)piperidine-1-carbonyl)nicotinamide]	1000 to 10000
O=C(NC1CCN(Cc2ccc(OC(F)(F)F)cc2)C[C@H]1F)c1ccc(C(=O)N2CCC(C(=O)c3ccc(N4CCCC4)cc3)CC2)nc1 (stereo partly drawn) [Compound 7-57, N-((3,4-trans)-3-fluoro-1-(4-(trifluoromethoxy)benzyl)piperidin-4-yl)-6-(4-(4-(pyrrolidin-1-yl)benzoyl)piperidine-1-carbonyl) nicotinamide]	< 1000
COc1ccc(C(=O)C2CCN(C(=O)c3ccc(C(=O)NC4CCN(Cc5ccc(C)c(C#N)c5)C[C@H]4F)cn3)CC2)cc1 (stereo partly drawn) [Compound 7-58, N-((3,4-trans)-1-(3-cyano-4-methylbenzyl)-3-fluoropiperidin-4-yl)-6-(4-(4-methoxybenzoyl)piperidine-1-carbonyl)nicotinamide]	< 1000
COc1ccc(C(=O)C2CCN(C(=O)c3ccc(C(=O)NC4CCN(Cc5ccc(C#N)c(C)c5)C[C@H]4F)cn3)CC2)cc1 (stereo partly drawn) [Compound 7-59, N-((3,4-trans)-1-(4-cyano-3-methylbenzyl)-3-fluoropiperidin-4-yl)-6-(4-(4-methoxybenzoyl)piperidine-1-carbonyl)nicotinamide]	< 1000
